Reference: patent publication US4645769A, “1-oxa-1-dethia-cephalosporin compounds and antibacterial agent comprising the same” (Merck & Co., Inc., priority 1985, dated 1987)
Converted amounts (≈) assume the structure as drawn. Structures can show the parent of a compound that is named as a salt. Where two headings read alike, the source gives them in different places.

Legend:
[1] = system: Salmonella typhimurium LT-2; experiment: Minimum Inhibitory Concentration (MIC), antibacterial spectrum in vitro; type: cell-based; conditions: Salmonella enterica, read-out: Minimum Inhibitory Concentration (MIC)
[2] = system: Klebsiella pneumoniae PCI 602; experiment: as above; type: cell-based
[3] = system: Pseudomonas aeruginosa E-2; experiment: as above; type: cell-based
[4] = system: Streptococcus faecalis ATCC 8043; experiment: as above; type: cell-based; conditions: Enterococcus faecalis
[5] = system: Pseudomonas aeruginosa MB-3833; experiment: as above; type: cell-based
[6] = system: Pseudomonas aeruginosa RPL-11; experiment: as above; type: cell-based
[7] = system: Esherichia coli NIHJ JC-2; experiment: as above; type: cell-based
Proteus morganii 1510 = experiment: as above; type: cell-based
Enterobacter cloacae P99 = experiment: as above; type: cell-based; conditions: P99, read-out: Minimum Inhibitory Concentration (MIC)
[8] = system: Citrobacter freundii GN-346; experiment: as above; type: cell-based
[9] = Concentration in Blood Serum after subcutaneous dosing (bioassay using Escherichia coli); type: in vivo; conditions: mouse, sc, 25 mg/Kg subcutaneously, mice; for concentration at 0.5 h: 1/2 hour; for concentration at 0.25 h: 1/4 hour; for concentration at 5 min: 1/12 hour
Procedure: The concentration of the compound in the serum was determined by bioassay using Escherichia coli as assay microorganism.

[10] = system: Pseudomonas aeruginosa (GN 10362); experiment: Efficacy in Mice Infected with Pseudomonas aeruginosa (GN 10362); type: in vivo; conditions: GN10362, sc, 168 h
Excerpt: (§1) A systemic infection was produced by intraperitoneal injection of the appropriate pathogen to mice (five male mice in each group, average body weight 20 g), and the mice were received single subcutaneous dose of the compound one hour after the infection.

[11] = system: Staphylococcus aureus 209 P JC-1; experiment: Minimum Inhibitory Concentration (MIC), antibacterial spectrum in vitro; type: cell-based
Esherichia coli TEM DC-2 = experiment: as above; type: cell-based; conditions: read-out: Minimum Inhibitory Concentration (MIC)
Pseudomonas aeruginosa = experiment: Antibacterial activity against Pseudomonas aeruginosa (from Table 1); type: cell-based; conditions: in words
[12] = system: Staphylococus aureus (Smith I); experiment: Efficacy in Mice Infected with Staphylococus aureus (Smith I); type: in vivo; conditions: Staphylococcus aureus, sc, 168 h, St. aureus (Smith I) intraperitoneal infection, single subcutaneous dose one hour after infection, 7 days
Excerpt: as §1

Streptococcus faecalis = experiment: Antibacterial activity against Streptococcus faecalis (statement in words); type: cell-based
[13] = PCI602, Klebsiella pneumoniae PCI 602, read-out: Minimum Inhibitory Concentration (MIC)
[14] = E2, Pseudomonas aeruginosa E-2, read-out: Minimum Inhibitory Concentration (MIC)
[15] = ATCC8043, Streptococcus faecalis ATCC 8043, read-out: Minimum Inhibitory Concentration (MIC)
[16] = MB3833, Pseudomonas aeruginosa MB-3833, read-out: Minimum Inhibitory Concentration (MIC)
[17] = RPL11, Pseudomonas aeruginosa RPL-11, read-out: Minimum Inhibitory Concentration (MIC)
[18] = Morganella morganii, Proteus morganii 1510, read-out: Minimum Inhibitory Concentration (MIC)
[19] = GN346, Citrobacter freundii GN-346, read-out: Minimum Inhibitory Concentration (MIC)
[20] = Ps. aeruginosa (GN 10362) intraperitoneal infection, mice, single subcutaneous dose one hour after infection, 7 days, read-out: ED 50
[21] = 209PJC1, Staphylococcus aureus 209 P JC-1, read-out: Minimum Inhibitory Concentration (MIC)

Row | Compound | MIC [7] [µg/mL] | MIC ([1]; Salmonella typhimurium LT-2) [µg/mL] | MIC [2, 13] [µg/mL] | MIC [3, 14] [µg/mL] | MIC [4, 15] [µg/mL] | MIC [5, 16] [µg/mL] | MIC (Proteus morganii 1510; [18]) [µg/mL] | MIC [8, 19] [µg/mL] | MIC [11, 21] [µg/mL] | MIC (Enterobacter cloacae P99) [µg/mL] | concentration at 0.5 h [9] [ng/mL] | concentration at 0.25 h [9] [ng/mL] | concentration at 5 min [9] [ng/mL] | concentration at 1 h [9] [ng/mL] | MIC (Esherichia coli TEM DC-2) [µg/mL] | MIC [6, 17] [µg/mL] | effectiveness against Pseudomonas aeruginosa (Pseudomonas aeruginosa) | effectiveness against Streptococcus faecalis (Streptococcus faecalis) | also measured
1 | CC(C)(O/N=C(\C(=O)N[C@@H]1C(=O)N2C(C(=O)[O-])=C(C[n+]3ccccc3)CS[C@H]12)c1csc(N)n1)C(=O)O [Ceftazidime, reference compound] | 0.1 (≈ 0.183 µM) |  |  |  |  |  |  |  |  | 64 (≈ 117 µM) | 11500 | 20000 | 13000 | 6300 | 0.5 (≈ 0.915 µM) |  |  |  | MIC ([1]; TYPHIMURIUM): 0.05 µg/mL (≈ 0.0915 µM); MIC ([2]; Klebsiella pneumoniae, PCI602, read-out: Minimum Inhibitory Concentration (MIC)): 0.1 µg/mL (≈ 0.183 µM); MIC ([3]; Pseudomonas aeruginosa, E2, read-out: Minimum Inhibitory Concentration (MIC)): 0.78 µg/mL (≈ 1.43 µM); MIC ([4]; ATCC8043, read-out: Minimum Inhibitory Concentration (MIC)): 50 µg/mL (≈ 91.5 µM); MIC ([5]; Pseudomonas aeruginosa, MB3833, read-out: Minimum Inhibitory Concentration (MIC)): 0.78 µg/mL (≈ 1.43 µM); MIC ([6]; Pseudomonas aeruginosa, RPL11, read-out: Minimum Inhibitory Concentration (MIC)): 3 µg/mL (≈ 5.49 µM); MIC (Proteus morganii 1510; Morganella morganii, 1510, read-out: Minimum Inhibitory Concentration (MIC)): 12.5 µg/mL (≈ 22.9 µM); MIC ([8]; Citrobacter freundii, GN346, read-out: Minimum Inhibitory Concentration (MIC)): 25 µg/mL (≈ 45.7 µM); ED50 [10]: 0.22 mg/kg; MIC ([11]; Staphylococcus aureus, 209PJC1, read-out: Minimum Inhibitory Concentration (MIC)): 1.56 µg/mL (≈ 2.85 µM)
2 | CC1OC2C(NC(=O)C(=NOC(C)(C)C(=O)O)c3csc(N)n3)C(=O)N2C(C(=O)[O-])=C1CSc1cc[n+](C)cc1 [Compound 1, (6R,7R)-7-((Z)-2-(2-Aminothiazole-4-yl)-2-(2-carboxyprop-2-oxyimino)acetamide)-(2S)-2-methyl-3-(1-methyl-pyridinium-4-ylthiomethyl)-1-oxa-1-oxa-1-dethiaceph-3-em-4-carboxylate (Sodium Salt)] | 0.2 | 0.05 | 0.2 | 3.13 | 50 | 3.13 | 0.39 | 0.78 | 1.56 | 1 | 10600 | 18500 | 14500 | 2200 | 0.5 | 4 | effective against Pseudomonas aeruginosa |  | ED50 [10, 20]: 0.16 mg/kg; ED50 [12]: 0.028 mg/kg
3 | C[n+]1ccc(SCC2=C(C(=O)[O-])N3C(=O)C(NC(=O)C(=NOCC(=O)O)c4csc(N)n4)C3OC2)cc1 [Compound 13, (6R,7R)-7-((Z)-2-(2-Aminothiazole-4-yl)-2-carboxymethoxyiminoacetamide)-3-(1-methylpyridinium-4-ylthiomethyl)-1-oxa-1-dethiaceph-3-em-4-carboxylate (Sodium Salt)] | < 0.025 | < 0.025 | 25 | 6.25 | 50 | 6.25 | 1.56 | 6.25 | 1.56 | 64 |  |  |  |  | 1 | 128 |  |  | 
4 | CC(C)(ON=C(C(=O)NC1C(=O)N2C(C(=O)[O-])=C(CSc3cc[n+](CC(F)(F)F)cc3)COC12)c1csc(N)n1)C(=O)O [Compound 16, (6R,7R)-7-((Z)-2-(2-Aminothiazole-4-yl)-2-(2-carboxyprop-2-oxyimino)acetamide)-3-(1-(2,2,2-trifluoroethyl)-pyridinium-4-ylthiomethyl)-1-oxa-1-dethiaceph-3-em-4-carboxylate (Sodium Salt)] | 0.1 | < 0.025 | 0.1 | 1.56 | > 100 | 1.56 | 6.25 | 25 | 3.13 | 128 | 11000 | 20000 | 16000 | 2400 | 0.03 | 32 | effective against Pseudomonas aeruginosa |  | 

Now from value to molecule, other results behind:

Row | MIC [7] [µg/mL] | MIC ([1]; Salmonella typhimurium LT-2) [µg/mL] | MIC [2, 13] [µg/mL] | MIC [3, 14] [µg/mL] | MIC [4, 15] [µg/mL] | MIC [5, 16] [µg/mL] | MIC (Proteus morganii 1510; [18]) [µg/mL] | MIC [8, 19] [µg/mL] | MIC [11, 21] [µg/mL] | Compound | MIC (Enterobacter cloacae P99) [µg/mL] | concentration at 0.5 h [9] [ng/mL] | concentration at 0.25 h [9] [ng/mL] | concentration at 5 min [9] [ng/mL] | concentration at 1 h [9] [ng/mL] | MIC (Esherichia coli TEM DC-2) [µg/mL] | MIC [6, 17] [µg/mL] | effectiveness against Pseudomonas aeruginosa (Pseudomonas aeruginosa) | effectiveness against Streptococcus faecalis (Streptococcus faecalis) | also measured
5 | 0.05 (≈ 0.0852 µM) | < 0.025 | 0.1 (≈ 0.17 µM) | 3.13 (≈ 5.34 µM) | 12.5 (≈ 21.3 µM) | 3.13 (≈ 5.34 µM) | 6.25 (≈ 10.7 µM) | 50 (≈ 85.2 µM) | 0.2 (≈ 0.341 µM) | CON=C(C(=O)NC1C(=O)N2C(C(=O)[O-])=C(CSc3cc[n+](CC(F)(F)F)cc3)C(C)OC12)c1csc(N)n1 [Compound 6, (6R,7R)-7-((Z)-2-(2-Aminothiazole-4-yl)-2-methoxyiminoacetamide)-(2S)-2-methyl-3-(1-(2,2,2-trifluoroethyl)pyridinium-4-ylthiomethyl)-1-oxa-1-dethiaceph-3-em-4-carboxylate] |  |  |  |  |  |  |  | effective against Pseudomonas aeruginosa | effective against Streptococcus faecalis | 
6 | 0.1 | 0.05 | 0.05 | 12.5 | 6.25 | 12.5 | 0.78 | 6.25 | 0.39 | CCON=C(C(=O)NC1C(=O)N2C(C(=O)[O-])=C(CSc3cc[n+](CC(=O)O)cc3)C(C)OC12)c1csc(N)n1 [Compound 8, (6R,7R)-7(Z)-2-(2-Aminothiazole-4-yl)-2-ethoxyiminoacetamide)-(2S)-2-methyl-3-(1-carboxymethylpyridinium-4-ylthiomethyl)-1-oxa-1-dethiaceph-3-em-4-carboxylate (Sodium Salt)] |  |  |  |  |  |  |  |  | effective against Streptococcus faecalis | 
7 | < 0.025 | < 0.025 | 0.025 (≈ 0.0495 µM) | 25 (≈ 49.5 µM) | 1.56 (≈ 3.09 µM) | 6.25 (≈ 12.4 µM) | 1.56 (≈ 3.09 µM) | 1.56 (≈ 3.09 µM) | 0.1 (≈ 0.198 µM) | CON=C(C(=O)NC1C(=O)N2C(C(=O)[O-])=C(CSc3cc[n+](C)cc3)COC12)c1csc(N)n1 [Compound 10, (6R,7R)-7-((Z)-2-(2-Aminothiazole-4-yl)-2-methoxyiminoacetamide)-3-(1-methylpyridinium-4-yl-thiomethyl)-1-oxa-1-dethiaceph-3-em-4-carboxylate] |  |  |  |  |  |  |  |  | effective against Streptococcus faecalis | 
8 | < 0.025 | < 0.025 | 0.025 | 50 | 0.78 | 25 | 6.2 | 12.5 | 0.39 | CON=C(C(=O)NC1C(=O)N2C(C(=O)[O-])=C(CSc3cc[n+](CC(=O)O)cc3)COC12)c1csc(N)n1 [Compound 11, (6R,7R)-7-((Z)-2-(2-Aminothiazole-4-yl)-2-methoxyiminoacetamide)-3-(1-carboxymethylpyridinium-4-yl-thiomethyl)-1-oxa-1-dethiaceph-3-em-4-carboxylate (Sodium Salt)] |  |  |  |  |  |  |  |  | effective against Streptococcus faecalis | 
9 | < 0.025 | < 0.025 | 0.025 | 25 | 6.25 | 12.5 | 12.5 | 12.5 | 0.39 | CCON=C(C(=O)NC1C(=O)N2C(C(=O)[O-])=C(CSc3cc[n+](CC(=O)O)cc3)COC12)c1csc(N)n1 [Compound 12, (6R,7R)-7-((Z)-2-(2-Aminothiazole-4-yl)-2-ethoxyiminoacetamido)-3-(1-carboxymethylpyridinium-4-ylthiomethyl)-1-oxa-1-dethiaceph-3-em-4-carboxylate (Sodium Salt)] |  |  |  |  |  |  |  |  | effective against Streptococcus faecalis | 
10 | 0.1 (≈ 0.192 µM) | 0.05 (≈ 0.0961 µM) | 0.2 (≈ 0.384 µM) | 6.25 (≈ 12 µM) | 25 (≈ 48 µM) | 6.25 (≈ 12 µM) | 0.2 (≈ 0.384 µM) | 1.56 (≈ 3 µM) | 3.13 (≈ 6.01 µM) | CO[C@@]1(NC(=O)C(C(=O)O)c2ccc(O)cc2)C(=O)N2C(C(=O)O)=C(CSc3nnnn3C)CO[C@@H]21 (stereo partly shown) [Latamoxef, reference compound] |  |  |  |  |  |  |  |  |  | ED50 [10, 20]: 2.9 mg/kg; ED50 [12]: 0.67 mg/kg
